Laboratory results taken from patent US6180599A, “Pharmaceutical composition, containing medium-chain fatty acids as active ingredients, for dental caries and periodontal disease” (priority 1997, dated 2001).

Columns and labels:
[1] = system: cariogenic plaque bacteria (standard strains); assay: Inhibitory effect of acid production, standard strains; format: cell-based, Streptococcus, Lactobacillus and Actinomyces; details: for inhibitory effect of acid production (in words): 0.5-8 mM, pH 5.0 and 7.0, 24-48 hours
Protocol: In order to identify the action by which medium-chain fatty acids inhibit acid production, the inhibitory effect and concentration of acid production were determined in seven kinds of standard cariogenic plaque bacteria. Also, the inhibitory effect of acid production for 20 kinds of cariogenic plaque bacteria, separated from the human oral cavity, was assayed. Liquid culture media used were: Todd-Hewitt broth of Streptococcus, Lactobacilli MRS broth of Lactobacillus and Brain Heart Infusion broth of Actinomyces. […] The final pH of the culture medium was measured after culturing for 24^~ 48 hours in 10% CO2 incubator.

[2] = Extracellular polysaccharide in liquid medium with fatty acid, no bacteria
Protocol: (§1) In order to identify the effect by which medium-chain fatty acids inhibit plaque matrix formation, inhibitory effect and concentration of extracellular polysaccharide synthesis were determined in seven kinds of standard cariogenic plaque bacteria. Also, the inhibitory effect of extracellular polysaccharide synthesis for 20 kinds of cariogenic plaque bacteria, separated from the human oral cavity, was measured. Liquid culture media used were: Todd-Hewitt broth of Streptococcus, Lactobacilli MRS broth of Lactobacillus and Brain Heart Infusion broth of Actinomyces. 0.1 ml of bacterial (or cell) suspension (OD600 =0.5) of each bacteria was inoculated to 5.9 ml of culture media containing 1 mM of medium-chain fatty acids and 2% of glucose, and was cultured for 24^~ 48 hours in 10% CO2 incubator. After culturing, the resultant was centrifuged to precipitate at 5,000×g for 15 minutes, then soluble extracellular polysaccharide was separated and purified from the supernatant and insoluble extracellular polysaccharide from the cell pellet, and then these were quantified.

S. mutans BHT = assay: Inhibitory effect on extracellular polysaccharide synthesis, standard strain; format: cell-based, Streptococcus mutans; details: 1 mM
Protocol: as §1

S. mutans 10449 = assay: as above; format: cell-based, Streptococcus mutans; details: 1 mM
Protocol: as §1

S. mutans JC-2 = assay: as above; format: cell-based, Streptococcus mutans; details: 1 mM
Protocol: as §1

L. casei ATCC 27216 = assay: as above; format: cell-based, Lactobacillus casei; details: 1 mM
Protocol: as §1

L. casei ATCC 4646 = assay: as above; format: cell-based, Lactobacillus casei; details: 1 mM
Protocol: as §1

[3] = system: cariogenic plaque bacteria; assay: Inhibitory effect on extracellular polysaccharide synthesis (summary); format: cell-based, Streptococcus, Lactobacillus and Actinomyces; details: 1 mM
Protocol: as §1, with “quantified. So the experimental results that represent inhibitory effect of medium-chain fatty acids upon extracellular polysaccharide synthesis, are shown in table 1, 2, 3 and 4.” for “quantified.”

S. sanguis 10556 = assay: Inhibitory effect on extracellular polysaccharide synthesis, standard strain; format: cell-based; details: 1 mM
Protocol: as §1

A. viscosus ATCC 15987 = assay: as above; format: cell-based; details: 1 mM
Protocol: as §1

[4] = system: cariogenic plaque bacteria separated from human oral cavities; assay: Inhibitory effect of bacterial growth, bacteria separated from human oral cavities; format: cell-based; details: 1 mM lauric acid as salt form; neutral and acidic pH; FIG. 4
Protocol: In order to evaluate how medium-chain fatty acids influence bacterial growth of cariogenic plaque bacteria, the influence on each bacteria was evaluated after selecting seven kinds of bacterial strains as standard bacteria among cariogenic plaque bacteria. […] The results that medium-chain fatty acids have on influencing bacterial growth of cariogenic plaque bacteria is shown in FIG. 3. And the result of measuring inhibitory effect of bacterial growth of 20 kinds of cariogenic plaque bacteria separated from the human oral cavities is shown in FIG. 4.

[5] = system: cariogenic plaque bacteria separated from human oral cavities; assay: Extracellular polysaccharide synthesis, 20 kinds of bacteria separated from human oral cavities (summary); format: cell-based; details: 1 mM
Protocol: as §1, with “quantified. So the experimental results that represent inhibitory effect of medium-chain fatty acids upon extracellular polysaccharide synthesis, are shown in table 1, 2, 3 and 4.” for “quantified.”

## CCCCCCCCCCCC(=O)[O-].[Na+] [C12, sodium laurate]
[1]
  inhibitory effect of acid production (in words): excellent inhibitory effect of acid production even at low concentration of 1 mM
[1]; listed as salt form of lauric acid
  inhibitory effect of acid production (in words): almost completely inhibits the acid production ability
[1]; acidic conditions, FIG. 1
  inhibitory effect of acid production in acidic conditions (in words): significant effect of acid production in acidic conditions
[1]; ranking, FIG. 1
  inhibitory effect of acid production, sequence: sodium laurate>sodium capriate>sodium nonanoate
[2]; Table 1, 1 mM
  Extracellular polysaccharide, soluble: 1.4 ± 0.1 µg/mL
[2]; Table 2, 1 mM
  Extracellular polysaccharide, soluble: 4.6 ± 1.3 µg/mL
[2]; Table 3, 1 mM
  Extracellular polysaccharide, soluble: 4.4 ± 0.2 µg/mL
S. mutans BHT; 2% glucose, 24-48 hours, control 31.5 ± 3.7
  Extracellular polysaccharide, soluble: 4.1 ± 0.8 µg/mL
S. mutans BHT; vs control
  Inhibitory rate, soluble: 87%
S. mutans 10449; 2% glucose, 24-48 hours, control 0.8 ± 0.3
  Extracellular polysaccharide, insoluble: 0.2 ± 0.1 µg/mL
S. mutans 10449; 2% glucose, 24-48 hours, control 74.6 ± 1.8
  Extracellular polysaccharide, soluble: 15.5 ± 3.8 µg/mL
S. mutans 10449; vs control
  Inhibitory rate, soluble: 79%
S. mutans JC-2; 2% glucose, 24-48 hours, control 1.1 ± 0.2
  Extracellular polysaccharide, insoluble: 0.1 ± 0.1 µg/mL
S. mutans JC-2; 2% glucose, 24-48 hours, control 34.4 ± 3.9
  Extracellular polysaccharide, soluble: 0.6 ± 0.5 µg/mL
S. mutans JC-2; vs control
  Inhibitory rate, soluble: 98%
L. casei ATCC 27216; 2% glucose, 24-48 hours, control 5.9 ± 0.4
  Extracellular polysaccharide, insoluble: 2.0 ± 0.1 µg/mL
L. casei ATCC 27216; 2% glucose, 24-48 hours, control 67.3 ± 4.5
  Extracellular polysaccharide, soluble: 19.0 ± 2.1 µg/mL
L. casei ATCC 27216; vs control
  Inhibitory rate, soluble: 72%
L. casei ATCC 4646; 2% glucose, 24-48 hours, control 5.3 ± 0.5
  Extracellular polysaccharide, insoluble: 0.2 ± 0.2 µg/mL
L. casei ATCC 4646; 2% glucose, 24-48 hours, control 43.6 ± 7.0
  Extracellular polysaccharide, soluble: 19.2 ± 2.9 µg/mL
L. casei ATCC 4646; vs control
  Inhibitory rate, soluble: 56%
[3]
  inhibitory effect of extracellular polysaccharide synthesis (in words): inhibited in the highest degree
[3]; ranking
  inhibitory effect of extracellular polysaccharide synthesis, sequence: sodium laurate>sodium capriate>sodium nonanoate
S. sanguis 10556; 2% glucose, 24-48 hours, control 25.9 ± 4.3
  Extracellular polysaccharide, soluble: 12.2 ± 0.9 µg/mL
S. sanguis 10556; vs control
  Inhibitory rate, soluble: 53%
A. viscosus ATCC 15987; 2% glucose, 24-48 hours, control 2.1 ± 0.2
  Extracellular polysaccharide, insoluble: 0.2 ± 0.1 µg/mL
A. viscosus ATCC 15987; 2% glucose, 24-48 hours, control 222.8 ± 3.3
  Extracellular polysaccharide, soluble: 25.3 ± 1.7 µg/mL
A. viscosus ATCC 15987; vs control
  Inhibitory rate, soluble: 89%
[4]
  inhibition of bacterial growth (in words): more remarkable effects even at low concentration than that of the control group
[5]
  inhibition of soluble extracellular polysaccharide synthesis (in words): noticeably inhibits soluble extracellular polysaccharide synthesis
